Read-outs that look alike come from different tables or passages of the source.
Legend:
Adenovirus type 5 [1] = format: cell-based; settings: examples using ginseng (Table 1); Vero-E6 cells, 100 μg/ml pretreatment 2 h, 50 pfu/well, 72 h; non-treated control = 100
Adenovirus type 5 [2] = settings: examples using ginseng (Table 1); lung tissue of K18-ACE2 TG mice, oral, three days after infection; non-treated control = 100

Row | Structure (SMILES) | Relative virus titer Adenovirus type 5 (Adenovirus type 5 [1]) | Relative virus titer Adenovirus type 5 (Adenovirus type 5 [2])
1 | C[C@@H]1C[C@H]2[C@@H]3CCC4=CC(=O)C=C[C@]4(C)[C@@]3(F)[C@@H](O)C[C@]2(C)[C@@]1(O)C(=O)CO [Comparative Example 4, Dexamethasone] | 102 ± 1.9 | 102 ± 1.9
2 | C[C@]12CCC(=O)C=C1CC[C@@H]1[C@@H]2[C@@H](O)C[C@@]2(C)[C@H]1CC[C@]2(O)C(=O)CO [Comparative Example 5, Hydrocortisone] | 103 ± 1.9 | 101 ± 1.9
3 | C[C@]12C=CC(=O)C=C1CC[C@@H]1[C@@H]2[C@@H](O)C[C@@]2(C)[C@H]1CC[C@]2(O)C(=O)CO [Comparative Example 6, Prednisolone] | 102 ± 1.9 | 102 ± 1.9
4 | C[C@]12C=CC(=O)C=C1CC[C@H]1[C@@H]3C[C@@H](O)[C@](O)(C(=O)CO)[C@@]3(C)C[C@H](O)[C@@]12F [Comparative Example 7, Triamcinolone] | 102 ± 1.9 | 101 ± 1.9
